| Structure (SMILES) | melting point |
| --- | --- |
| N#Cc1cc(Cl)cc(Oc2c(Cl)ccc(CC(=O)Nc3ccc(C(=O)O)cc3Cl)c2F)c1 | 242 to 243 °C |
| Cc1cc(C(N)=O)ccc1NC(=O)Cc1ccc(Cl)c(Oc2cc(Cl)cc(C#N)c2)c1F | 255.9 to 257.1 °C |
| CN(C)CCNC(=O)c1ccc(NC(=O)Cc2ccc(Cl)c(Oc3cc(Cl)cc(C#N)c3)c2F)c(Cl)c1 | 202.8 to 203.6 °C |
| Cc1cc(C(=O)O)ccc1NC(=O)Cc1ccc(Br)c(Oc2cc(Cl)cc(C#N)c2)c1F | 270 to 270.8 °C |
| Cc1cc(C(=O)NC(C)CN(C)C)ccc1NC(=O)Cc1ccc(Br)c(Oc2cc(Cl)cc(C#N)c2)c1F (stereo not shown) | 222 to 223.2 °C |
| Cc1cc(C(=O)NCCN)ccc1NC(=O)Cc1ccc(Cl)c(Oc2cc(Cl)cc(C#N)c2)c1F | 207.6 to 208.6 °C |
| Cc1cc(C(=O)O)ccc1NC(=O)Cc1ccc(Cl)c(Oc2cc(Cl)cc(C#N)c2)c1F | 287.1 to 289.1 °C |
| N#Cc1cc(Cl)cc(Oc2c(Br)ccc(CC(=O)Nc3ccc(C(=O)NC(=N)N)cc3Cl)c2F)c1 | 207 to 209 °C |
| Cc1cc(C(=O)NCCN(C)C)ccc1NC(=O)Cc1ccc(Cl)c(Oc2cc(Cl)cc(C#N)c2)c1F | 213.3 to 216 °C |
| N#Cc1cc(Cl)cc(Oc2c(Br)ccc(CC(=O)Nc3ccc(C(=O)NCCN(CCO)CCO)cc3Cl)c2F)c1 | 100.1 °C |
| CC(CN(C)C)NC(=O)c1ccc(NC(=O)Cc2ccc(Br)c(Oc3cc(Cl)cc(C#N)c3)c2F)c(Cl)c1 (stereo not shown) | 190.1 °C |
| CC1(NC(=O)c2ccc(NC(=O)Cc3ccc(Br)c(Oc4cc(Cl)cc(C#N)c4)c3F)c(Cl)c2)CCNCC1.O=C(O)C(F)(F)F | 130.5 °C |
| CC(C)(CN)NC(=O)c1ccc(NC(=O)Cc2ccc(Br)c(Oc3cc(Cl)cc(C#N)c3)c2F)c(Cl)c1.Cl | 158 to 160.8 °C |
| N#Cc1cc(Cl)cc(Oc2c(Br)ccc(CC(=O)Nc3ccc(C(=O)NC4(CO)CC4)cc3Cl)c2F)c1 | 247.7 to 250.1 °C |
| CC1(NC(=O)c2ccc(NC(=O)Cc3ccc(Br)c(Oc4cc(Cl)cc(C#N)c4)c3F)c(Cl)c2)CCS(=O)(=O)C1 (stereo not shown) | 95 to 105 °C |
| N#Cc1cc(Cl)cc(Oc2c(Br)ccc(CC(=O)Nc3ccc(C(=O)N[C@@H]4CS(=O)(=O)C[C@H]4O)cc3Cl)c2F)c1 | 245 °C |
| N#Cc1cc(Cl)cc(Oc2c(Br)ccc(CC(=O)Nc3ccc(C(=O)NC4(CN)CC4)cc3Cl)c2F)c1.O=C(O)C(F)(F)F | 148 to 152.4 °C |
| CC(CO)(CO)NC(=O)c1ccc(NC(=O)Cc2ccc(Br)c(Oc3cc(Cl)cc(C#N)c3)c2F)c(Cl)c1 | 69.1 °C |

More lines, now with the values ahead:

| melting point | Structure (SMILES) |
| --- | --- |
| 205.6 to 206.6 °C | Cc1cc(C(=O)NCCN(C)C)ccc1NC(=O)Cc1ccc(Br)c(Oc2cc(C#N)cc(C(F)F)c2)c1F |
| 168.1 to 170.1 °C | Cc1cc(C(=O)NCCN2CCS(=O)(=O)CC2)ccc1NC(=O)Cc1ccc(Br)c(Oc2cc(Cl)cc(C#N)c2)c1F |
| 214.7 to 216.9 °C | Cc1cc(C(=O)NCCN2CCCC2)ccc1NC(=O)Cc1ccc(Br)c(Oc2cc(Cl)cc(C#N)c2)c1F |
| 219.8 to 222 °C | Cc1cc(C(=O)NCCN2CCOCC2)ccc1NC(=O)Cc1ccc(Br)c(Oc2cc(Cl)cc(C#N)c2)c1F |
| 197.7 to 198.3 °C | N#Cc1cc(Cl)cc(Oc2c(Br)ccc(CC(=O)Nc3ccc(C(=O)NCCN4CCCC4)cc3Cl)c2F)c1 |
| 160 to 165.7 °C | N#Cc1cc(Oc2c(Br)ccc(CC(=O)Nc3ccc(C(=O)NCCN4CCCC4)cc3Cl)c2F)cc(C(F)F)c1 |
| 202.4 to 203.7 °C | Cc1cc(C(=O)NCCN2CCCC2)ccc1NC(=O)Cc1ccc(Br)c(Oc2cc(C#N)cc(C(F)F)c2)c1F |
| 225.5 to 228.8 °C | Cc1cc(C(=O)NC[C@@H](C)O)ccc1NC(=O)Cc1ccc(Br)c(Oc2cc(C#N)cc(C(F)F)c2)c1F |
| 179 to 181 °C | CC1CC[C@@H](C)N1CCNC(=O)c1ccc(NC(=O)Cc2ccc(Br)c(Oc3cc(Cl)cc(C#N)c3)c2F)c(Cl)c1 (stereo partly shown) |
| 96 °C | CN1CCC(C)(NC(=O)c2ccc(NC(=O)Cc3ccc(Br)c(Oc4cc(Cl)cc(C#N)c4)c3F)c(Cl)c2)CC1 |

— US7754919B2, “Non-nucleoside reverse transcriptase inhibitors” (Roche Palo Alto LLC, priority 2005, dated 2010)
